According to ChEMBL document CHEMBL6096719, “Kidney Targeting Smart Antibiotic Discovery: Multimechanism Pleuromutilins for Pyelonephritis Therapy” (J Med Chem, 2025):
The source made the active and inactive calls. The calls are words filed in the database; no cut-off is given here.

How the values were obtained:
[1] = Aqueous solubility of the compound incubated for 12 hrs by UV-Vis spectrophotometry; format: physicochemical; conditions: buffer
[2] = tested on: Escherichia coli; test: Antibacterial activity against Escherichia coli CMCC 44103 assessed as inhibition of bacterial growth incubated for 24 hrs by broth microdilution method; format: functional
[3] = tested on: Staphylococcus aureus; test: Antibacterial activity against methicillin-resistant Staphylococcus aureus 171 assessed as inhibition of bacterial growth incubated for 24 hrs by broth microdilution method; format: functional
[4] = tested on: Staphylococcus aureus; test: Antibacterial activity against methicillin-resistant Staphylococcus aureus 222 assessed as inhibition of bacterial growth incubated for 24 hrs by broth microdilution method; format: functional
[5] = tested on: Pseudomonas aeruginosa; test: Antibacterial activity against multidrug-resistant Pseudomonas aeruginosa 126 assessed as inhibition of bacterial growth incubated for 24 hrs by broth microdilution method; format: functional
[6] = Cytotoxicity against human HEK293 cells assessed as reduction in cell viability incubated for 24 hrs by CCK8 assay; format: toxicity, cell-based
[7] = tested on: Mesomycoplasma hyopneumoniae; test: Anti-mycoplasma activity against Mycoplasma hyopneumoniae MH-LH assessed as inhibition of bacterial growth incubated for 6 to 7 days by broth microdilution method; format: functional; conditions: time 6-7 day
[8] = tested on: Mycoplasmopsis synoviae; test: Anti-mycoplasma activity against Mycoplasma synoviae WVU1853 NCTC10124 assessed as inhibition of bacterial growth incubated for 3 to 5 days by broth microdilution method; format: functional; conditions: time 3-5 day
[9] = tested on: Mycoplasmoides pneumoniae; test: Anti-mycoplasma activity against Mycoplasma pneumoniae M129 ATCC29342 assessed as inhibition of bacterial growth incubated for 3 to 5 days by broth microdilution method; format: functional; conditions: time 3-5 day
[10] = tested on: Chlamydia pneumoniae; test: Anti-mycoplasma activity against Chlamydophila pneumoniae AR39 ATCC53592 assessed as inhibition of bacterial growth incubated for 3 to 5 days by broth microdilution method; format: functional; conditions: time 3-5 day
[11] = tested on: Metamycoplasma hominis; test: Anti-mycoplasma activity against Mycoplasma hominis PG-21 ATCC23114 assessed as inhibition of bacterial growth incubated for 1 to 2 days by broth microdilution method; format: functional; conditions: time 1-2 day
[12] = tested on: Staphylococcus aureus; test: Antibiofilm activity against methicillin-resistant Staphylococcus aureus ATCC33591 assessed as eradication of preformed biofilms incubated for 24 hrs with preformed biofilms by crystal violet staining based analysis; format: functional, organism-based; conditions: dose 0.125-0.5 µg/ml
[13] = tested on: Staphylococcus aureus; test: Antibiofilm activity against methicillin-resistant Staphylococcus aureus ATCC33591 assessed as disruption of preformed biofilms at 0.5 ug/ml incubated for 24 hrs with preformed biofilms by crystal violet staining based analysis; format: functional; conditions: dose 0.5 µg/ml
[14] = tested on: Escherichia coli; test: Antibiofilm activity against Escherichia coli ATCC25922 assessed as disruption of preformed biofilms at 0.5 ug/ml incubated for 24 hrs with preformed biofilms by crystal violet staining based analysis; format: functional; conditions: dose 0.5 µg/ml
[15] = tested on: Staphylococcus aureus; test: Antibiofilm activity against methicillin-resistant Staphylococcus aureus ATCC33591 assessed as eradication of biofilms at 0.5 ug/ml incubated for 4 hrs by field emission scanning electron microscopy; format: functional, organism-based; conditions: dose 0.5 µg/ml
[16] = tested on: Cell membrane; test: Disruption of cell membrane in methicillin-resistant Staphylococcus aureus ATCC33591 assessed as induction of cell death by measuring increase in propidium iodide fluorescence intensity at 0.5 ug/ml incubated for 2 hrs by bright field microscopy; format: subcellular; conditions: dose 0.5 µg/ml
[17] = tested on: Cell membrane; test: Disruption of cell membrane in methicillin-resistant Staphylococcus aureus ATCC33591 assessed as induction of cell death by measuring increase in propidium iodide fluorescence intensity at 0.5 ug/ml incubated for 2 hrs by fluorescence field microscopy; format: subcellular; conditions: dose 0.5 µg/ml
[18] = tested on: Cell membrane; test: Disruption of cell membrane in Escherichia coli ATCC25922 assessed as increase in extracellular ATP content at 0.125 to 0.25 ug/ml incubated for 30 mins by luminescence based analysis; conditions: dose 0.125-0.25 µg/ml
[19] = tested on: Cell membrane; test: Disruption of cell membrane in Escherichia coli ATCC25922 assessed as decrease in intracellular pH at 0.125 ug/ml incubated for 30 mins by cFDA-SE probe based fluorescence analysis; conditions: dose 0.125 µg/ml
[20] = tested on: Staphylococcus aureus; test: Antibacterial activity against methicillin-resistant Staphylococcus aureus ATCC33591 infected in systemic intraperitoneal infection Kunming mouse model assessed as decrease in inflammation and neutrophil infiltration in liver at 5 mg/kg, ip treated at 1 hr post-infection and measured after 7 days by Hematoxylin-Eosin staining based analysis; format: functional, organism-based; conditions: time 7.0 day
[21] = tested on: Staphylococcus aureus; test: Antibacterial activity against methicillin-resistant Staphylococcus aureus ATCC33591 infected in systemic intraperitoneal infection Kunming mouse model assessed as decrease in inflammation, neutrophil infiltration and disordered spleen structure at 5 mg/kg, ip treated at 1 hr post-infection and measured after 7 days by Hematoxylin-Eosin staining based analysis; format: functional, organism-based; conditions: time 7.0 day
[22] = tested on: Staphylococcus aureus; test: Antibacterial activity against methicillin-resistant Staphylococcus aureus ATCC33591 infected in systemic intraperitoneal infection Kunming mouse model assessed as increase in animal's survival rate at 20 mg/kg, ip treated at 1 hr post-infection and measured for 7 days; format: functional, organism-based; conditions: time 7.0 day
[23] = Cmax in Sprague-Dawley rat at 5 mg/kg, iv; format: ADME, organism-based; conditions: in vivo
[24] = Observed AUC (0 to infinity) in Sprague-Dawley rat at 5 mg/kg, iv; format: ADME, organism-based; conditions: in vivo
[25] = Observed clearance in Sprague-Dawley rat at 5 mg/kg, iv; format: ADME, organism-based; conditions: in vivo
[26] = Observed MRT (0 to infinity) in Sprague-Dawley rat at 10 mg/kg, po; format: ADME, organism-based; conditions: in vivo
[27] = Observed apparent oral clearance in Sprague-Dawley rat at 10 mg/kg, po; format: ADME, organism-based; conditions: in vivo
[28] = Oral bioavailability in Sprague-Dawley rat at 10 mg/kg; format: ADME, organism-based; conditions: in vivo
[29] = Drug uptake in Sprague-Dawley rat liver at 5 mg/kg, iv measured for 6 hrs by LC-MS/MS analysis; format: ADME, organism-based; conditions: in vivo
[30] = tested on: Escherichia coli; test: Antibacterial activity against Escherichia coli ATCC25922 infected in pyelonephritis C57BL/6 mouse model assessed as decrease in bacterial load in kidney at 3 to 10 mg/kg, iv qd for 3 days administered at 2 days post-infection; format: functional, organism-based; conditions: dose 3-10 mg/kg, time 3.0 day
[31] = tested on: Escherichia coli; test: Antibacterial activity against Escherichia coli ATCC25922 infected in pyelonephritis C57BL/6 mouse model assessed as decrease in inflammatory cell infiltration in kidney at 3 to 10 mg/kg, iv qd for 3 days administered at 2 days post-infection by Hematoxylin-Eosin staining based analysis; format: functional, organism-based; conditions: dose 3-10 mg/kg, time 3.0 day
[32] = tested on: Escherichia coli; test: Antibacterial activity against Escherichia coli ATCC25922 infected in pyelonephritis C57BL/6 mouse model assessed as restoration of normal renal cortex and pelvis structures at >=5 mg/kg, iv qd for 3 days administered at 2 days post-infection by Hematoxylin-Eosin staining based analysis; format: functional, organism-based; conditions: time 3.0 day
[33] = tested on: Escherichia coli; test: Antibacterial activity against Escherichia coli ATCC25922 infected in pyelonephritis C57BL/6 mouse model assessed as recovery of white blood cells count in blood at 3 to 10 mg/kg, iv qd for 3 days administered at 2 days post-infection; format: functional, organism-based; conditions: dose 3-10 mg/kg, time 3.0 day
[34] = tested on: Escherichia coli; test: Antibacterial activity against Escherichia coli ATCC25922 infected in pyelonephritis C57BL/6 mouse model assessed as decrease in IL-6 level in kidney at 3 to 10 mg/kg, iv qd for 3 days administered at 2 days post-infection by ELISA; format: functional, organism-based; conditions: dose 3-10 mg/kg, time 3.0 day
[35] = tested on: Escherichia coli; test: Antibacterial activity against Escherichia coli ATCC25922 infected in pyelonephritis C57BL/6 mouse model assessed as decrease in IL-1 beta level in kidney at 3 to 10 mg/kg, iv qd for 3 days administered at 2 days post-infection by ELISA; format: functional, organism-based; conditions: dose 3-10 mg/kg, time 3.0 day

Q: Which results are given for C=C[C@]1(C)C[C@@H](OC(=O)CSc2nc3cc[n+](Cc4ccc(C)cc4)cc3[nH]2)[C@]2(C)[C@H](C)CC[C@]3(CCC(=O)[C@H]32)[C@@H](C)[C@@H]1O.[Br-]?
A: solubility at 12 h [1]: 573 µg/mL; MIC [2]: < 1 µg/mL; MIC [3]: 4 µg/mL; MIC [4]: 4 µg/mL; MIC [5]: 4 µg/mL; CC50 at 24 h [6]: 96.4 µM; MIC [7]: < 0.04 µg/mL; MIC [8]: < 0.04 µg/mL; MIC [9]: < 0.008 µg/mL; MIC [10]: < 0.04 µg/mL; MIC [11]: < 0.04 µg/mL; Activity [12]: Dose-dependent-effect; Activity [13]: 84.31%; Activity [14]: 88.55%; Activity [15]: Active; Almost Complete Eradication Of Bacteria Observed; Activity [16]: Active; Activity [17]: Active; Activity [18]: Active; Activity [19]: Active; Activity [20]: Active; Nearly Restoration Of Normal Histology Observed; Activity [21]: Active; Nearly Restoration Of Normal Histology Observed; Activity [22]: Active; Slight Decrease In Activity Compared To Lower Dose Of Drug Concentration Observed; Diminished Therapeutic Effects To Drug At Higher Concentrations Observed; Cmax [23]: 25600 ng/mL; AUC(0-inf) [24]: 16500 ng·h/mL; clearance [25]: 5.04 mL/min/kg; MRT inf [26]: 2.46 h; CL/F [27]: 10.5 mL/min/kg; bioavailability [28]: 47.9%; Drug uptake [29]: Active; Activity [30]: Active; Activity [31]: Active; Activity [32]: Active; Activity [33]: Active; Activity [34]: Dose-dependent-effect; Activity [35]: Dose-dependent-effect
